Among the data in PubChem BioAssay (NCI) are TGI values, retold here.

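96-well plates; 48 h exposure; 5 concentrations. Endpoints by linear interpolation between flanking doses. Not reached: highest tested concentration assigned. TGI marks complete inhibition of growth.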

Among the test systems are MOLT-4 leukemia; UO-31 renal; SNB-19 CNS; NCI-H23 lung; OVCAR-3 ovarian; OVCAR-4 ovarian; SR leukemia; PC-3 prostate; SK-MEL-28 melanoma; RPMI-8226 leukemia; A498 renal; M14 melanoma; NCI-H226 lung.
Holding throughout (assay): NCI-60 cell line screen, 48 h

With `O=C1c2ccccc2CC12Cc1cc3c(cc1C2=O)CCC3` (stereo not drawn), the TGI with MOLT-4 leukemia, in the experiment with UO-31 renal, with SNB-19 CNS, with NCI-H23 lung, with OVCAR-3 ovarian and in the experiment with OVCAR-4 ovarian was above 100 µM throughout. Also, the TGI in the experiment on SR leukemia, with PC-3 prostate, in the experiment on SK-MEL-28 melanoma, in the experiment on RPMI-8226 leukemia, with A498 renal and in the experiment on M14 melanoma was above 100 µM each time.
For the compound `O=C(O)CSc1cc(-c2ccccc2)nc2ccccc12`, the TGI in the experiment with MOLT-4 leukemia was above 100 µM; in the experiment with UO-31 renal, above 100 µM; with SNB-19 CNS it was above 100 µM; with NCI-H23 lung it was above 100 µM; with OVCAR-3 ovarian, 49 µM; in the experiment with OVCAR-4 ovarian it was above 100 µM. Besides, the TGI with SR leukemia is above 100 µM; with PC-3 prostate, above 100 µM; with SK-MEL-28 melanoma, above 100 µM; in the experiment on A498 renal it was 67 µM; in the experiment on M14 melanoma it was above 100 µM.
Regarding `O=C(Cn1nc(Br)c(Br)c1Br)c1ccccc1`, the TGI in the experiment with MOLT-4 leukemia is 12.3 µM; in the experiment on UO-31 renal it was 57 µM; with SNB-19 CNS, above 100 µM; in the experiment on NCI-H23 lung it was 94.3 µM; with OVCAR-3 ovarian it was above 100 µM; in the experiment with OVCAR-4 ovarian it was above 100 µM. Further, the TGI was 25.9 µM with SR leukemia; above 100 µM with PC-3 prostate; above 100 µM with SK-MEL-28 melanoma; 63.5 µM in the experiment on NCI-H226 lung; 85.8 µM with A498 renal; 92.1 µM in the experiment on M14 melanoma.
For `CC(C)C(C/C=C1/CC(CO)(COC(=O)CC(C(C)C)C(C)C)OC1=O)C(C)C` (stereo not drawn), the TGI was 32.7 µM in the experiment with MOLT-4 leukemia; 19.9 µM with UO-31 renal; 25.8 µM in the experiment with SNB-19 CNS; 29.9 µM in the experiment on NCI-H23 lung; 26.7 µM in the experiment with OVCAR-3 ovarian; 31.8 µM in the experiment on OVCAR-4 ovarian. Besides, the TGI with SR leukemia was above 50.3 µM; in the experiment on PC-3 prostate, 20.2 µM; in the experiment on SK-MEL-28 melanoma, 27.7 µM; in the experiment with NCI-H226 lung, 22.6 µM; in the experiment with A498 renal, 11 µM; in the experiment on M14 melanoma, 26.8 µM.
For the compound `O=C1c2cc3ccccc3cc2C2(c3ccc(Cl)cc3)N[C@H]3CCCC[C@@H]3N12` (stereo partly drawn), the TGI in the experiment with MOLT-4 leukemia was above 100 µM; in the experiment on UO-31 renal, 57.6 µM; in the experiment on SNB-19 CNS, 27.9 µM; in the experiment with NCI-H23 lung, 31.3 µM; in the experiment on OVCAR-3 ovarian, 49 µM; in the experiment on OVCAR-4 ovarian, 21.3 µM. Moreover, the TGI was 48.7 µM in the experiment with SR leukemia; 42.6 µM in the experiment with PC-3 prostate; 28.1 µM in the experiment on SK-MEL-28 melanoma; above 100 µM in the experiment with RPMI-8226 leukemia; 39.7 µM in the experiment with A498 renal; 8.65 µM with M14 melanoma.
As for `CCC1CC2CN3CCc4c([nH]c5c(-c6c(OC)ccc7c8c([nH]c67)[C@]6(C(=O)OC)CC7CC(CC)C6N(CC8)C7)c(O)ccc45)[C@](C(=O)OC)(C2)C13` (stereo partly drawn), the TGI with MOLT-4 leukemia turned out to be 16.7 µM; in the experiment on UO-31 renal it was 27.1 µM; in the experiment on SNB-19 CNS, 35.8 µM; in the experiment with NCI-H23 lung it was 34.4 µM; in the experiment on OVCAR-3 ovarian it was 30.9 µM; in the experiment on SR leukemia it was 45.4 µM. Also, the TGI in the experiment with PC-3 prostate was 30.2 µM; with SK-MEL-28 melanoma, 29.9 µM; in the experiment with NCI-H226 lung, 22 µM; with A498 renal, 28.7 µM; in the experiment with M14 melanoma, 78.2 µM.
With `Cc1nc2c(o1)C(=O)c1ccccc1/C2=N/c1ccccn1`, the TGI turned out to be 43.2 µM with MOLT-4 leukemia; 39.3 µM in the experiment with UO-31 renal; 28.3 µM with SNB-19 CNS; 23.6 µM in the experiment on NCI-H23 lung; 49.3 µM with OVCAR-3 ovarian; 28.2 µM in the experiment with OVCAR-4 ovarian. Besides, the TGI in the experiment with SR leukemia is 97.3 µM; in the experiment with PC-3 prostate, above 100 µM; with SK-MEL-28 melanoma, 32.8 µM; in the experiment on RPMI-8226 leukemia, above 100 µM; with A498 renal, 30.7 µM; with M14 melanoma it was 33.6 µM.
For the compound `COc1ccc(/C=C2\CSC/C(=C\c3ccc(OC)c(OC)c3OC)C2=O)c(OC)c1OC`, the TGI with UO-31 renal was above 100 µM; in the experiment on SNB-19 CNS, above 100 µM; in the experiment with NCI-H23 lung, above 100 µM; in the experiment with OVCAR-3 ovarian, above 100 µM; with SR leukemia, 80.4 µM; with PC-3 prostate, above 100 µM. In addition, the TGI with SK-MEL-28 melanoma is above 100 µM; with NCI-H226 lung, above 100 µM; with RPMI-8226 leukemia it was 67.3 µM; with M14 melanoma it was 40.2 µM.
Turning to `C/C(=N\Nc1ccc([N+](=O)[O-])cc1[N+](=O)[O-])c1ccc2ccccc2n1`, the TGI is above 100 µM with MOLT-4 leukemia; above 100 µM in the experiment with UO-31 renal; 94.4 µM with SNB-19 CNS; above 100 µM in the experiment on NCI-H23 lung; above 100 µM in the experiment on SR leukemia; above 100 µM in the experiment with PC-3 prostate. In addition, the TGI in the experiment on SK-MEL-28 melanoma, in the experiment on NCI-H226 lung, with RPMI-8226 leukemia and with M14 melanoma was above 100 µM in each case.
Consider `CN1C(c2ccccc2)=CC(=O)C(O)=C(c2ccccc2)S1(=O)=O`, for which the TGI in the experiment on MOLT-4 leukemia, in the experiment with UO-31 renal, with SNB-19 CNS, in the experiment on NCI-H23 lung, in the experiment with OVCAR-3 ovarian and in the experiment on OVCAR-4 ovarian was above 100 µM each time. Moreover, the TGI in the experiment with SR leukemia, in the experiment on PC-3 prostate, in the experiment on SK-MEL-28 melanoma, in the experiment with NCI-H226 lung, in the experiment with RPMI-8226 leukemia and with M14 melanoma was above 100 µM throughout.
Take `O=C1c2ccccc2-c2nc(-c3cccnc3)cc3c2c1nc1ccccc13`: the TGI in the experiment with MOLT-4 leukemia, with UO-31 renal, with SNB-19 CNS, with NCI-H23 lung, in the experiment with OVCAR-3 ovarian and with OVCAR-4 ovarian was above 100 µM each time. The TGI in the experiment on SR leukemia, in the experiment with PC-3 prostate, in the experiment on SK-MEL-28 melanoma, with NCI-H226 lung, with RPMI-8226 leukemia and with M14 melanoma was above 100 µM each time.
Turning to `CC(NS(C)(=O)=O)c1ccccc1` (stereo not drawn), the TGI with MOLT-4 leukemia, in the experiment on UO-31 renal, in the experiment on SNB-19 CNS, in the experiment with NCI-H23 lung, in the experiment on OVCAR-3 ovarian and in the experiment on OVCAR-4 ovarian was above 100 µM in each case. Besides, the TGI in the experiment on SR leukemia, with PC-3 prostate, with SK-MEL-28 melanoma, in the experiment on NCI-H226 lung, in the experiment on RPMI-8226 leukemia and with M14 melanoma was above 100 µM throughout.
